Test results as given in PubChem BioAssay AID1259407 (Chemical Carcinogenesis Research Information System (CCRIS), 2018).
Activity calls are given as the source filed them. The rule behind the calls is not given here.

Tested on: CCRIS mutagenicity, Ames/micronucleus/aberration tests
Assay: CCRIS mutagenicity studies

Measured: mutagenic call

CC1(C(=O)Nc2ccccc2)CO1 (stereo unspecified)
active: Test System: AMES SALMONELLA TYPHIMURIUM, Strain/Indicator: TA100, Metabolic Activation: MOUSE, LIVER, S-9, AROCLOR 1254, Method: STANDARD PLATE active; positive | Test System: AMES SALMONELLA TYPHIMURIUM, Strain/Indicator: TA100, Metabolic Activation: NONE, Method: STANDARD PLATE active; positive

ICI
active: Test System: E. COLI, Strain/Indicator: WP2 UVRA (PKM101), Metabolic Activation: NONE, Method: STANDARD PLATE active; positive
inactive: Test System: AMES SALMONELLA TYPHIMURIUM, Strain/Indicator: TA102, Metabolic Activation: NONE, Method: STANDARD PLATE inactive; negative | Test System: AMES SALMONELLA TYPHIMURIUM, Strain/Indicator: TA2638, Metabolic Activation: NONE, Method: STANDARD PLATE inactive; negative | Test System: E. COLI, Strain/Indicator: WP2 (PKM101), Metabolic Activation: NONE, Method: STANDARD PLATE inactive; negative

CC(C)(C)C(=O)C(Oc1ccc(Cl)cc1)n1ccnc1 (stereo unspecified)
inactive: Test System: AMES SALMONELLA TYPHIMURIUM, Strain/Indicator: TA98, Metabolic Activation: NONE, Method: PREINCUBATION inactive; negative | Test System: AMES SALMONELLA TYPHIMURIUM, Strain/Indicator: TA98, Metabolic Activation: RAT, LIVER, S-9, PCB, Method: PREINCUBATION inactive; negative | Test System: AMES SALMONELLA TYPHIMURIUM, Strain/Indicator: TA100, Metabolic Activation: NONE, Method: PREINCUBATION inactive; negative | Test System: AMES SALMONELLA TYPHIMURIUM, Strain/Indicator: TA100, Metabolic Activation: RAT, LIVER, S-9, PCB, Method: PREINCUBATION inactive; negative | Test System: AMES SALMONELLA TYPHIMURIUM, Strain/Indicator: TA1535, Metabolic Activation: NONE, Method: PREINCUBATION inactive; negative | Test System: AMES SALMONELLA TYPHIMURIUM, Strain/Indicator: TA1535, Metabolic Activation: RAT, LIVER, S-9, PCB, Method: PREINCUBATION inactive; negative | Test System: AMES SALMONELLA TYPHIMURIUM, Strain/Indicator: TA1537, Metabolic Activation: NONE, Method: PREINCUBATION inactive; negative | Test System: AMES SALMONELLA TYPHIMURIUM, Strain/Indicator: TA1537, Metabolic Activation: RAT, LIVER, S-9, PCB, Method: PREINCUBATION inactive; negative | Test System: AMES SALMONELLA TYPHIMURIUM, Strain/Indicator: TA1538, Metabolic Activation: NONE, Method: PREINCUBATION inactive; negative | Test System: AMES SALMONELLA TYPHIMURIUM, Strain/Indicator: TA1538, Metabolic Activation: RAT, LIVER, S-9, PCB, Method: PREINCUBATION inactive; negative | Test System: Ames Salmonella typhimurium, Strain/Indicator: TA98, Metabolic Activation: None, Method: Plate incorporation inactive; negative | Test System: Ames Salmonella typhimurium, Strain/Indicator: TA98, Metabolic Activation: None, Method: Preincubation inactive; negative | Test System: Ames Salmonella typhimurium, Strain/Indicator: TA98, Metabolic Activation: Rat, Liver, S-9, Aroclor, Method: Plate incorporation inactive; negative | Test System: Ames Salmonella typhimurium, Strain/Indicator: TA98, Metabolic Activation: Rat, Liver, S-9, Aroclor, Method: Preincubation inactive; negative | Test System: Ames Salmonella typhimurium, Strain/Indicator: TA100, Metabolic Activation: None, Method: Plate incorporation inactive; negative | Test System: Ames Salmonella typhimurium, Strain/Indicator: TA100, Metabolic Activation: None, Method: Preincubation inactive; negative | Test System: Ames Salmonella typhimurium, Strain/Indicator: TA100, Metabolic Activation: Rat, Liver, S-9, Aroclor, Method: Plate incorporation inactive; negative | Test System: Ames Salmonella typhimurium, Strain/Indicator: TA100, Metabolic Activation: Rat, Liver, S-9, Aroclor, Method: Preincubation inactive; negative | Test System: Ames Salmonella typhimurium, Strain/Indicator: TA1535, Metabolic Activation: None, Method: Plate incorporation inactive; negative | Test System: Ames Salmonella typhimurium, Strain/Indicator: TA1535, Metabolic Activation: None, Method: Preincubation inactive; negative | Test System: Ames Salmonella typhimurium, Strain/Indicator: TA1535, Metabolic Activation: Rat, Liver, S-9, Aroclor, Method: Plate incorporation inactive; negative | Test System: Ames Salmonella typhimurium, Strain/Indicator: TA1535, Metabolic Activation: Rat, Liver, S-9, Aroclor, Method: Preincubation inactive; negative | Test System: Ames Salmonella typhimurium, Strain/Indicator: TA1537, Metabolic Activation: None, Method: Plate incorporation inactive; negative | Test System: Ames Salmonella typhimurium, Strain/Indicator: TA1537, Metabolic Activation: None, Method: Preincubation inactive; negative | Test System: Ames Salmonella typhimurium, Strain/Indicator: TA1537, Metabolic Activation: Rat, Liver, S-9, Aroclor, Method: Plate incorporation inactive; negative | Test System: Ames Salmonella typhimurium, Strain/Indicator: TA1537, Metabolic Activation: Rat, Liver, S-9, Aroclor, Method: Preincubation inactive; negative | Test System: E. COLI, Strain/Indicator: WP2 UVRA, Metabolic Activation: NONE, Method: PREINCUBATION inactive; negative | Test System: E. coli, Strain/Indicator: WP2uvrA (pKM101), Metabolic Activation: None, Method: Plate incorporation inactive; negative | Test System: E. coli, Strain/Indicator: WP2uvrA (pKM101), Metabolic Activation: None, Method: Preincubation inactive; negative | Test System: E. coli, Strain/Indicator: WP2uvrA (pKM101), Metabolic Activation: Rat, Liver, S-9, Aroclor, Method: Plate incorporation inactive; negative | Test System: E. coli, Strain/Indicator: WP2uvrA (pKM101), Metabolic Activation: Rat, Liver, S-9, Aroclor, Method: Preincubation inactive; negative | Test System: In vitro micronucleus, Strain/Indicator: Human lymphocytes, Metabolic Activation: None inactive; negative | Test System: In vivo micronucleus, Species: Mouse, Strain/Sex: ICR/Male, Route: Oral (gavage) inactive; negative | Test System: Mouse lymphoma L5178Y/TK+/- cells, Strain/Indicator: WP2 uvrA (pKM101), Metabolic Activation: Rat, Liver, S-9, Aroclor 1254, Method: Suspension/plate inactive; negative
active: Test System: UDS Rat hepatocytes, Strain/Indicator: Thymidine incorporation, Method: In vivo - in vitro, measurement by autoradiography active; positive
